From ChEMBL document CHEMBL1127172, “Novel pseudosymmetric inhibitors of HIV-1 protease” (Bioorg Med Chem Lett, 1993)

Legend:
[1] = biological target: Human immunodeficiency virus type 1 protease (Human immunodeficiency virus 1, UniProt Q72874); test: In vitro inhibition of HIV-1 protease at pH 6 using 164 uM peptide substrate
[2] = tested on: Human immunodeficiency virus 1; test: Antiviral activity against HIV-1 LAV virus infected MT-2 cells with reference to AZT (ED90=0.3 uM); format: functional, MT2
Cathepsin E = biological target: T1, Cathepsin E (Homo sapiens, UniProt P14091); test: The compound was tested for its inhibitory activity against human cathepsin E
T1 sequence (P14091 whole entry): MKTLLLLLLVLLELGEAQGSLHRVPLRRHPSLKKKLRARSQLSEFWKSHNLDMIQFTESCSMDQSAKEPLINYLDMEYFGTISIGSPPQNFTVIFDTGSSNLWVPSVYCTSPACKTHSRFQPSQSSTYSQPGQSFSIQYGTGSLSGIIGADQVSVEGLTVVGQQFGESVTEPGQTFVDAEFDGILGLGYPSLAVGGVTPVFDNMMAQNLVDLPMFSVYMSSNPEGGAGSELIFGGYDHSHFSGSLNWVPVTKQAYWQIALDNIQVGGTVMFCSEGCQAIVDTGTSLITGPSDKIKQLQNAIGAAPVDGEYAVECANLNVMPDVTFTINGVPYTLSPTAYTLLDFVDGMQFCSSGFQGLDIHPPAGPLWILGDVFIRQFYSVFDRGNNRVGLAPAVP

Gastricsin = biological target: T2, Gastricsin (Homo sapiens, UniProt P20142); test: The compound was tested for its inhibitory activity against human gastricsin
T2 sequence (P20142 whole entry): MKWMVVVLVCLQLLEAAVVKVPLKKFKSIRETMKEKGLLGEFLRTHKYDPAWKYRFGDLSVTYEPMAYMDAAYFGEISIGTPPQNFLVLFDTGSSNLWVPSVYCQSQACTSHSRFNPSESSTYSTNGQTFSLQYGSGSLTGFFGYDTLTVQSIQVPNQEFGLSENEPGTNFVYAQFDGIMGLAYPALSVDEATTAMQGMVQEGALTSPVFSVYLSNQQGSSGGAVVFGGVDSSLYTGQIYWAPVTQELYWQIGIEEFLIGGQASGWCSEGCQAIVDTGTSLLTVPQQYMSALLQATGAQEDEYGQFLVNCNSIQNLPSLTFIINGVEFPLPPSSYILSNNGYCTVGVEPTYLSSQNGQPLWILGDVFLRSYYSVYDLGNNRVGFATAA

Cathepsin D = Cathepsin D (Homo sapiens, UniProt P07339); test: The compound was tested for its inhibitory activity against human cathepsin D
Renin = biological target: T3, Renin (Homo sapiens, UniProt P00797); test: The compound was tested for its inhibitory activity against human renin
T3 sequence (P00797 whole entry): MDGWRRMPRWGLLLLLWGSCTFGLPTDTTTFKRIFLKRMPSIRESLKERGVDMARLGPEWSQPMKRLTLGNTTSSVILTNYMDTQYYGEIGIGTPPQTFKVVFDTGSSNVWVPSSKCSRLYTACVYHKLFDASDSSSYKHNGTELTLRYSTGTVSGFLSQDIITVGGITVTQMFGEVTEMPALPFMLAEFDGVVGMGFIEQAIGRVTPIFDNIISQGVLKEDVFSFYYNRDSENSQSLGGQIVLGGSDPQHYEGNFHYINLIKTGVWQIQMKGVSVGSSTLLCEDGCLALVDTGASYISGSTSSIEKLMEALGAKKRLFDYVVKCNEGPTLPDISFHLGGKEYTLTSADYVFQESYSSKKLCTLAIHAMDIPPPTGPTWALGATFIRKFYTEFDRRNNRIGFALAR

MT2 = test: The compound was tested for its antiviral activity against HIV-1LAV virus infected MT-2 cells; format: functional, Homo sapiens
[3] = biological target: Human immunodeficiency virus type 1 protease (Human immunodeficiency virus 1) (UniProt Q72874); test: The compound was tested in vitro for the % inhibition of HIV-1 protease at 100 uM concentration

Cathepsin D, sequence (P07339 65-162 limits assumed): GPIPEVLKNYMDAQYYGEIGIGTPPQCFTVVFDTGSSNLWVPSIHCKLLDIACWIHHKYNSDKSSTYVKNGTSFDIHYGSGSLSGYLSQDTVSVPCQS
Cathepsin D, sequence (P07339 169-412 limits assumed): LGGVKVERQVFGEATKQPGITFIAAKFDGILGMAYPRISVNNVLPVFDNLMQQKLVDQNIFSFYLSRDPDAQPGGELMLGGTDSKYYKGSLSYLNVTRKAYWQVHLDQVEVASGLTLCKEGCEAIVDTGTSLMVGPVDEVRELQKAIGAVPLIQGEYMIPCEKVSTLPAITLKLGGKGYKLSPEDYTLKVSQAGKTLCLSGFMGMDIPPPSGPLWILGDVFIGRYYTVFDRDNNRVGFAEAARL

Row | Structure (SMILES) | IC50 [1] | ED90 [2] | other results
1 | CC(=O)N[C@H](C(=O)N[C@@H](Cc1ccccc1)[C@@H](O)CN(Cc1ccccc1)NC(=O)[C@H](NC(C)=O)C(C)C)C(C)C | 30 nM | 10000 nM | 
2 | CC(C)[C@H](NC(=O)OCc1ccccc1)C(=O)N[C@@H](Cc1ccccc1)[C@@H](O)CN(Cc1ccc(C#N)cc1)NC(=O)[C@@H](NC(=O)OCc1ccccc1)C(C)C | 24 nM | 100 nM | 
3 | CC(=O)N[C@H](C(=O)N[C@@H](Cc1ccccc1)[C@@H](O)CN(CC1CCCCC1)NC(=O)[C@@H](NC(C)=O)C(C)C)C(C)C | 9 nM | 1000 nM | IC50 (Cathepsin E): 2000 nM; IC50 (Gastricsin): 1000 nM; IC50 (Cathepsin D): 7500 nM; IC50 (Renin): > 58000 nM
4 | CC(C)[C@H](NC(=O)N1CCOCC1)C(=O)N[C@@H](Cc1ccccc1)[C@@H](O)CN(Cc1ccccc1)NC(=O)[C@H](NC(=O)N1CCOCC1)C(C)C | 2000 nM |  | 
5 | CC(C)[C@H](NC(=O)Cc1ccccc1)C(=O)N[C@@H](Cc1ccccc1)[C@@H](O)CN(Cc1ccccc1)NC(=O)[C@H](NC(=O)Cc1ccccc1)C(C)C | 360 nM |  | 
6 | CC(C)[C@H](NC(=O)Cc1cccnc1)C(=O)N[C@@H](Cc1ccccc1)[C@@H](O)CN(Cc1ccccc1)NC(=O)[C@H](NC(=O)Cc1cccnc1)C(C)C | 500 nM |  | 
7 | Cc1cn([C@H]2C[C@H](N=[N+]=[N-])[C@@H](CO)O2)c(=O)[nH]c1=O [ZIDOVUDINE] |  |  | ED90 (MT2): 300 nM
8 | CC(=O)N[C@H](C(=O)N[C@@H](Cc1ccccc1)[C@@H](O)CN(Cc1ccc(F)cc1)NC(=O)[C@@H](NC(C)=O)C(C)C)C(C)C | 28 nM | 10000 nM | 
9 | CC(=O)N[C@H](C(=O)N[C@@H](Cc1ccccc1)[C@@H](O)CN(Cc1ccc(C#N)cc1)NC(=O)[C@@H](NC(C)=O)C(C)C)C(C)C | 50 nM | >10000 nM | 
10 | CC(C)[C@H](NC(=O)OCc1ccccc1)C(=O)N[C@@H](Cc1ccccc1)[C@@H](O)CN(CC1CCCCC1)NC(=O)[C@@H](NC(=O)OCc1ccccc1)C(C)C | 95 nM | 1000 nM | 
11 | CC(C)[C@H](NC(=O)c1ccc2ccccc2n1)C(=O)N[C@@H](Cc1ccccc1)[C@@H](O)CN(Cc1ccccc1)NC(=O)[C@H](NC(=O)c1ccc2ccccc2n1)C(C)C | 65 nM |  | 
12 | CC(C)[C@H](NC(=O)OCc1ccccc1)C(=O)N[C@@H](Cc1ccccc1)[C@@H](O)CN(Cc1ccccc1)NC(=O)[C@H](NC(=O)OCc1ccccc1)C(C)C | 33 nM | 100 nM | 
13 | CC(C)CN(C[C@H](O)[C@H](Cc1ccccc1)NC(=O)[C@@H](NC(=O)OCc1ccccc1)C(C)C)NC(=O)[C@@H](NC(=O)OCc1ccccc1)C(C)C | 10 nM | >1000 nM | 
14 | CC(C)[C@H](NC(=O)OC(C)(C)C)C(=O)N[C@@H](Cc1ccccc1)[C@@H](O)CN(Cc1ccccc1)NC(=O)[C@H](NC(=O)OC(C)(C)C)C(C)C | 52000 nM |  | 
15 | CC(C)[C@H](N)C(=O)N[C@@H](Cc1ccccc1)[C@@H](O)CN(Cc1ccccc1)NC(=O)[C@H](N)C(C)C | > 100000 nM |  | inhibition [3]: 32%
16 | CC(=O)N[C@H](C(=O)N[C@@H](Cc1ccccc1)[C@@H](O)CN(CC(C)C)NC(=O)[C@@H](NC(C)=O)C(C)C)C(C)C | 45 nM | >1000 nM | 
17 | CC(C)[C@H](NC(=O)OCc1ccccc1)C(=O)NN(Cc1ccccc1)C[C@H](O)[C@H](Cc1ccccc1)NC(=O)[C@H](NC(=O)OCc1ccccc1)C(C)C | > 100000 nM |  | inhibition [3]: 40%
18 | CC(C)(C)OC(=O)N[C@@H](Cc1ccccc1)[C@@H](O)CN(Cc1ccccc1)NC(=O)OC(C)(C)C | ~50000 nM |  | 
19 | CC(C)[C@H](NC(=O)OCc1ccccc1)C(=O)N[C@@H](Cc1ccccc1)[C@@H](O)CN(Cc1ccc(F)cc1)NC(=O)[C@@H](NC(=O)OCc1ccccc1)C(C)C | 22 nM | 1000 nM | 
